{
  "source": "patent US20100255086A1",
  "about": "“Method for oral mucosal absorption of acetyl salycylic acid” (priority 2009, published 2010)",
  "key": {"[1]": {"details": "cited from earlier work"}, "[2]": {"details": "cited from earlier work", "remark": "listed apart in the source"}, "[3]": {"details": "long-term treatment; cited from earlier work"}},
  "data": [
    {"smiles": "CC(=O)Oc1ccccc1C(=O)O", "note": "[aspirin, acetyl salicylic acid]", "values": [
      {"measurement": "solubility in water", "setting": "[1]", "result": "does not dissolve in water"},
      {"measurement": "acetyl salicylic acid reaching the stomach inactivated through deacetylation", "setting": "[2]", "result": "At least thirty two"},
      {"measurement": "severe gastrointestinal complication", "setting": "[3]", "result": "up to 30%"},
      {"measurement": "Buccal absorption", "setting": "normal buccal pH, no buffer added", "result": 5, "unit": "%"},
      {"measurement": "absorbed (buccal)", "setting": "pH of 2.5, buffer solution added", "result": 70, "unit": "%"}
    ]}
  ]
}
